Reference: patent EP2050748A1, “Novel fused pyrimidines” (Bayer Schering Pharma Aktiengesellschaft, priority 2007, dated 2009)

Experiments:
[1] = system: phosphorylated Akt protein (Ser473); experiment: Cellular PI3K / Akt pathway assay (phospho-Akt ELISA); type: cell-based; details: Homo sapiens; MCF7 cells, stimulated with ß-Heregulin (20ng/ml), compound incubated 48h, phospho-Akt1 (Ser473) ELISA
Description: In order to study the cellular activity of the compounds according to the present invention, an Enzyme Linked Immunosorbent Assay (ELISA)-based assay has been used specific phospho-AKT. The assay is based on a Sandwich ELISA kit (PathScan™ Phospho-Akt1 (Ser473); Cell Signaling, USA; #7160).
The ELISA Kit detects endogenous levels of phosphorylated Akt protein. A phospho-Akt (Ser473) antibody (Cell Signaling, USA; #9271) has been coated onto the microwells. After incubation with cell lysates, the coated antibody captures the phosphorylated Akt protein. Following extensive washing, Akt1 monoclonal antibody (Cell Signaling, USA; #2967) is added to detect the captured phospho-Akt1 protein. HRP-linked anti-mouse antibody (HRP: horseradish peroxidase; Cell Signaling, USA; #7076) is then used to recognize the bound detection antibody. HRP substrate (= 3,3',5,5'-tetramethylbenzidine (TMB); Cell Signaling, USA; #7160) is added to develop colour. The magnitude of optical density for this developed color is proportional to the quantity of phosphorylated Akt protein.
MCF7 cells (ATCC HTB-22) are seeded into 96 well fate bottom plates at a density of 10000 cells/well. 24 hours after seeding, the cells are serum starved using low-serum medium (IMEM media including 0,1% charcoal treated FCS (FCS: fetal calf serum)). After 24 hours 1 µl each of the compound dilutions (test compounds were dissolved as 10 mM solutions in dimethylsulfoxide (DMSO) and subsequently diluted) are added into each well of the 96 well plates and incubated for 48h at 37°C in a humidified athmosphere containing 5% CO2. To stimulate Akt phosphorylation, ß-Heregulin (20ng/ml β-HRG) is added in parallel to the compounds. Wells containing unstimulated control cells (no β-Heregulin stimulation) are incubated with or without the diluted compound. Wells containing untreated control cells (no compound) are filled with medium containing 0.5% v:v DMSO and are or are not stimulated with β-Heregulin.
Cells are harvested and lysed with brief sonification in 1x x cell lysis buffer (20mM Tris (pH7.5), 150 mM NaCl, 1 mM ethylene diaminetetraacetate (EDTA), 1 mM ethylene glycolbis(2-aminoethyl)-N,N,N',N'-tetraacetic acid (EGTA), 1vol% Triton X-100, 2.5mM sodium pyrophosphate, 1 mM β-glycerolphosphate, 1 mM Na3VO4, 1 µg/ml leupeptin). The lysate is centrifuged for 10 min. at 4°C and the supernatant is transferred to a new tube. 100 µl of sample diluent (0.1vol% Tween-20, 0.1vol% sodium azide in phosphate buffered saline (PBS)) are added to a microcentrifuge tube and 100 µl of cell lysate are transferred into the tube and vortexed. 100 µl of each diluted cell lysate are added to the appropriate ELISA well, and incubated overnight at 4°C. The plates are washed 4 times with 1 x wash buffer (1 vol% tween-20, 0.33vol% thymol, in PBS). Next 100 µl of detection antibody (Akt1 (2H10) monoclonal detection antibody; Cell Signaling, USA; #2967) are added to each well and incubation continued for 1 h at 37°C. The washing procedure is repeated between each step. 100µl of secondary antibody (anti-mouse IgG HRP-linked antibody; Cell Signaling, USA; #7076) are added to each well and incubated for 30 min. at 37°C. Than, 100µl of TMB substrate (0.05% 3,3',5,5' tetramethylbenzidine, 0.1 % hydrogen peroxide, complex polypeptides in a buffered solution; Cell Signaling, USA; #7160) are added to each well and incubated for 30 min. at 25°C. Finally 100 µl of STOP solution (0.05vol% α and β unsaturated carbonyl compound) are added to each well and the plate are shaked gently. The absorbance is measured at λ=450 nm (Wallac Victor2; Perkin Elmer, USA) within 30 min. after adding the STOP solution. The analysis of the data is performed using a statistical program (Excel; Microsoft, USA). Preferred compounds show an inhibitory activity towards Akt phosphorylation below 10µM.

[2] = system: phosphorylated GSK3 (Ser9); experiment: Cellular pGSK3 assay (phospho-GSK3 ELISA); type: cell-based; details: Homo sapiens, MCF7 cells, compound incubated 48h
Description: In order to study the cellular activity of the compounds according to the present invention, an ELISA-based assay has been established for the phosphorylated protein glycogen synthetase kinase 3 (GSK3). The assay is based on a solid phase sandwich ELISA that detects endogenous levels of phosphorylated GSK3 using a phospho-GSK3 (Ser9) specific antibody (BioSource International, Inc.; Catalog #KHO0461). After incubation with cell lysates, the coated antibody captures the phosphorylated GSK3 protein. Following extensive washing, GSK3 polyclonal antibody is added to detect the captured phospho-GSK3 protein. Secondary antibody (anti-rabbit IgG-HRP) is then used to recognize the bound detection antibody. After the second incubation and washing to remove all the excess anti-rabbit IgG-HRP, a substrate solution is added, which is acted upon by the bound enzyme to produce color. The intensity of this colored product is directly proportional to the concentration of GSK-3β [pS9] present in the original specimen. MCF7 cells (ATCC HTB-22) were seeded into 96 well fate bottom plates at a density of 10000 cells/well. After 24 h 1 µl each of the compound dilutions (test compounds were dissolved as 10 mM solutions in dimethylsulfoxide (DMSO) and subsequently diluted) were added into each well of the 96 well plates and incubated for 48h at 37°C in a humidified athmosphere containing 5% CO2. Cells were harvested and lysed in cell extraction buffer (10 mM Tris, pH 7.4, 100 mM NaCl, 1 mM EDTA, 1 mM EGTA, 1 mM NaF, 20 mM Na4P2O7, 2 mM Na3VO4, 1% Triton X-100, 10vol% glycerol, 0.1vol% SDS, 0.5vol% deoxycholate, 1 mM phenylmethylsulfonylfluorid (PMSF)). The lysate were centrifuged for 10 min. at 4°C and the supernatant were transferred to a new tube. 50 µl of sample diluent (standard diluent buffer, Biosource) were added and 100 µl of cell lysate transferred into the tube and vortexed. 100 µl of each diluted cell lysate were added to the appropriate ELISA well plate and incubated for 3h at room temperature. The plates were washed 4 times with 1x wash buffer (Biosource). 50 µl of detection antibody (GSK3 (Ser9) detection antibody; BioSource) were added to each well and incubated for 30 min. at room temperature. The washing procedure was repeated between each step. 100µl of HRP-linked secondary antibody (anti-mouse IgG HRP-linked antibody) were added to each well and incubated for 30 min. at room temperature. 100µl of TMB substrate (0.05vol% 3,3',5,5' tetramethylbenzidine, 0.1vol% hydrogen peroxide, complex polypeptides in a buffered solution; Biosource) were added to each well and incubated for 30 min. at room temperature. Finally 100 µl of Stop solution (0.05vol% α and β unsaturated carbonyl compound) were added to each well and the plate were shaked gently for a few seconds. The absorbance was measured at λ = 450 nm (Wallac Victor2; Perkin Elmer, USA) within 30 min. after adding the stop solution. The analysis of the data was performed using a statistical program (Excel; Microsoft, USA) and the IC50 of pGSK3 inhibition was determined.

SMILES | IC50 [1] | IC50 [2]
Fc1cnc2nc(-c3ccc(CN4CCC(c5n[nH]c(-c6ccccn6)n5)CC4)cc3)c(-c3ccccc3)cn12 [Example 9, 3-fluoro-6-phenyl-7-(4-{[4-(5-pyridin-2-yl-1H-1,2,4-triazol-3-yl)piperidin-1-yl]methyl}phenyl)imidazo[1,2-a]pyrimidine] | < 1000 nM | 1000 to 10000 nM
CCc1cnc2nc(-c3ccc(CN4CCC(c5n[nH]c(-c6ccccn6)n5)CC4)cc3)c(-c3ccccc3)cn12 [Example 22, 3-ethyl-6-phenyl-7-(4-{[4-(5-pyridin-2-yl-1,2,4-triazol-3-yl)piperidin-1-yl]methyl}phenyl)imidazo[1,2-a]pyrimidine] | < 1000 nM | 1000 to 10000 nM
Clc1cnc2nc(-c3ccc(CN4CCC(c5n[nH]c(-c6ccccn6)n5)CC4)cc3)c(-c3ccccc3)cn12 [Example 12, 3-chloro-6-phenyl-7-(4-{[4-(5-pyridin-2-yl-1,2,4-triazol-3-yl)piperidin-1-yl]methyl}phenyl)imidazo[1,2-a]pyrimidine] | < 1000 nM | 1000 to 10000 nM
Cc1nc2nc(-c3ccc(CN4CCC(c5n[nH]c(-c6ccccn6)n5)CC4)cc3)c(-c3ccccc3)cn2n1 [Example 3, 2-methyl-6-phenyl-5-(4-{[4-(5-pyridin-2-yl-1,2,4-triazol-3-yl)piperidin-1-yl]methyl}phenyl)[1,2,4]triazolo[1,5-a]pyrimidine] | < 1000 nM | 1000 to 10000 nM
c1ccc(-c2cn3ccnc3nc2-c2ccc(CN3CCC(c4n[nH]c(-c5ccncc5)n4)CC3)cc2)cc1 [Example 6, 6-phenyl-7-(4-{[4-(5-pyridin-4-yl-1,2,4-triazol-3-yl)piperidin-1-yl]methyl}phenyl)imidazo[1,2-a]pyrimidine] | < 1000 nM | 1000 to 10000 nM
Brc1cnc2nc(-c3ccc(CN4CCC(c5n[nH]c(-c6ccccn6)n5)CC4)cc3)c(-c3ccccc3)cn12 [Example 11, 3-bromo-6-phenyl-7-(4-{[4-(5-pyridin-2-yl-1,2,4-triazol-3-yl)piperidin-1-yl]methyl}phenyl)imidazo[1,2-a]pyrimidine] | < 1000 nM | < 1000 nM
